Source: PubChem BioAssay (NCI)
“And” between values parts separate entries of the source, which are not always exact repeats. Identical values can stand only once.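 Five concentrations, 48 hours, 96-well plates. Abbreviation: GI50, concentration required for 50% inhibition of growth. At the TGI there is no net growth.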

Legend:
Test in all cases: NCI anticancer screen, dose series, 48 h
OVCAR-3 ovarian = system: OVCAR-3 ovarian
CCRF-CEM leukemia = system: CCRF-CEM leukemia
ACHN renal = system: ACHN renal
NCI-H23 lung = system: NCI-H23 lung
EKVX NSCLC = system: EKVX NSCLC
SF-268 CNS = system: SF-268 CNS
OVCAR-4 ovarian = system: OVCAR-4 ovarian
T-47D breast = system: T-47D breast
MDA-MB-435 = system: MDA-MB-435
DU-145 prostate = system: DU-145 prostate

Structure (SMILES) | TGI (OVCAR-3 ovarian) | TGI (CCRF-CEM leukemia) | TGI (ACHN renal) | TGI (NCI-H23 lung) | TGI (EKVX NSCLC) | TGI (SF-268 CNS) | TGI (OVCAR-4 ovarian) | TGI (T-47D breast) | TGI (MDA-MB-435) | TGI (DU-145 prostate) | GI50 (OVCAR-3 ovarian) | GI50 (CCRF-CEM leukemia) | GI50 (MDA-MB-435) | GI50 (ACHN renal) | GI50 (NCI-H23 lung) | GI50 (SF-268 CNS) | GI50 (OVCAR-4 ovarian) | GI50 (DU-145 prostate) | GI50 (EKVX NSCLC) | GI50 (T-47D breast)
COc1cc(/C=C2\NC(=O)C(Cc3cc(OC)c(OC)c(C)c3OC)N(C(C)=O)C2=O)c(OC)c(C)c1OC (stereo unspecified) | > 100 µM | > 100 µM | > 100 µM | > 100 µM | > 100 µM | > 100 µM | > 100 µM |  |  |  |  |  |  |  |  |  |  |  |  | 
CCOC(=O)/C(=C\c1cccc(C)c1)C(C)=O | 28.1 µM |  | 66 µM | 39 µM | > 100 µM | 45.4 µM | 59.6 µM | 46.7 µM | 45.4 µM | 38.7 µM |  |  |  |  |  |  |  |  |  | 
O=C(NCCc1ccccc1)C1C(=O)C(=O)N(CCc2ccccc2)C1=O (stereo unspecified) | > 100 µM | > 100 µM | > 100 µM | > 100 µM | > 100 µM | > 100 µM |  |  |  |  |  |  |  |  |  |  |  |  |  | 
Cc1ccccc1C(CCCO)C(=O)O (stereo unspecified) | > 100 µM | > 100 µM | > 100 µM | > 100 µM | > 100 µM | > 100 µM | > 100 µM |  |  |  |  |  |  |  |  |  |  |  |  | 
CCCC(=O)CC(C)C(=O)C(=O)NC12CC3CC(CC(C3)C1)C2 (stereo unspecified) | > 100 µM | > 100 µM | > 100 µM | > 100 µM | > 100 µM | > 100 µM | > 100 µM |  |  |  |  |  |  |  |  |  |  |  |  | 
O=NN(CCCl)C(=O)NC1CCC(CC(=O)O)CC1 (stereo unspecified) | > 100 µM | > 100 µM and 62.2 µM | > 100 µM | > 100 µM | > 100 µM | > 100 µM | > 100 µM |  |  |  |  |  |  |  |  |  |  |  |  | 
COc1ccc(-c2nc3ccc(Cc4ccc5nc(-c6ccc(OC)cc6)[nH]c5c4)cc3[nH]2)cc1 | 0.0503 µM | 0.275 µM | 1.96 µM | 2.81 µM |  | 1.85 µM | 2.14 µM |  | 0.0202 µM | 0.154 µM | 0.0217 µM | < 0.01 µM | < 0.01 µM | 0.101 µM | 0.0516 µM | 0.0556 µM | 0.189 µM | 0.0385 µM |  | 
O=C(CCCC(=O)Nc1ccc(Cl)cc1Cl)CC(=O)c1ccc2ccccc2c1 | > 100 µM | > 100 µM | > 100 µM | > 100 µM | > 100 µM | > 100 µM | > 100 µM |  |  |  |  |  |  |  |  |  |  |  |  | 
N#Cc1ccc(Sc2nc3ccccc3[nH]2)cc1 |  | > 100 µM | > 100 µM | > 100 µM | > 100 µM | > 100 µM | > 100 µM |  |  |  |  |  |  |  |  |  |  |  |  | 
OC(c1ccccc1Br)(c1ccccc1Br)C(F)(F)F | 51.7 µM |  | 38.3 µM | 78.3 µM | > 100 µM | 43 µM | > 100 µM |  |  |  |  |  |  |  |  |  |  |  |  | 
CC(=O)[CH-]C(=O)c1ccccc1.[C-]#[O+].[C-]#[O+].[Ir] |  |  |  | > 100 µM | > 100 µM |  | > 100 µM |  |  |  |  |  |  |  | > 100 µM |  | > 100 µM |  | > 100 µM | 
COc1ccccc1Oc1nccc(-c2c(-c3ccc(F)cc3)ncn2C2CCNCC2)n1 | > 25 µM |  | > 25 µM |  | > 25 µM | > 25 µM | > 25 µM | > 25 µM | > 25 µM | > 25 µM | > 25 µM |  | > 24.1 µM | 15.4 µM |  | > 25 µM | > 25 µM | > 25 µM | > 25 µM | > 25 µM
CC(=O)OCC(=O)[C@@]1(O)CC[C@H]2[C@@H]3C[C@H](C)C4=CC(=O)C=C[C@]4(C)[C@@]3(F)[C@@H](O)C[C@@]21C | > 100 µM | > 100 µM | > 100 µM | > 100 µM | > 100 µM | > 100 µM | > 100 µM |  |  |  |  |  |  |  |  |  |  |  |  | 
COc1ccc(-c2[nH]c3ccc(OC)cc3c2C=C(C#N)C#N)cc1 | 1.9 µM | > 100 µM | > 100 µM | > 100 µM |  | > 100 µM | > 100 µM | > 100 µM |  | > 100 µM | 0.364 µM | > 100 µM |  | > 100 µM | 1.25 µM | 1.67 µM | > 100 µM | 0.752 µM |  | 2.57 µM
C[C@H](C(=O)O)C(=O)NC(=O)N(Cc1ccccc1)N=O | > 100 µM | > 100 µM | > 100 µM |  | > 100 µM | > 100 µM | > 100 µM |  |  |  |  |  |  |  |  |  |  |  |  | 
CSc1nc2nc(-c3ccccc3)c(C)c-2c2n1C(C)C(=O)N2 (stereo unspecified) | 81.8 µM |  | > 100 µM |  | > 100 µM | > 100 µM | > 100 µM | > 100 µM | > 100 µM | > 100 µM | 26.8 µM |  | 32.9 µM | 38.1 µM |  | 34.2 µM | 40.1 µM | 51.9 µM | 65.7 µM | 29.8 µM
CC(C)Cc1ccc(C(C)/C=C2\CCC(CN(C)C)C2=O)cc1 (stereo unspecified) | 26.5 µM | 23.4 µM | 38.1 µM | 34 µM | 40.2 µM | 25.5 µM | 35.2 µM |  | 19.6 µM | 23.6 µM |  |  |  |  |  |  |  |  |  | 
c1ccc(C(c2ccccc2)c2ccccn2)cc1 | > 100 µM | > 100 µM | > 100 µM | > 100 µM | > 100 µM | > 100 µM | > 100 µM |  |  |  |  |  |  |  |  |  |  |  |  | 
COc1ccc2c(C(=O)O)cc3ccccc3c2c1OC | 32.7 µM | 88.4 µM | 29.8 µM | 48 µM | 40.8 µM | 41.4 µM |  |  |  |  |  |  |  |  |  |  |  |  |  | 
Cc1cccc(Cn2cc(CO)c3cnccc32)c1 | > 100 µM |  | > 100 µM | > 100 µM | > 100 µM | > 100 µM | > 100 µM | > 100 µM | > 100 µM | > 100 µM | 40.1 µM |  | 49.7 µM | > 100 µM | 19.2 µM | > 100 µM | 78.3 µM | > 100 µM | 20.9 µM | 47.2 µM
O=C1C2C3C=CC(C2C(=O)N1CO)C1C2C(=O)N(CO)C(=O)C2C31 (stereo unspecified) | > 100 µM | > 59.3 µM | > 66.6 µM | > 100 µM | > 100 µM | > 79 µM | > 64.7 µM |  |  |  |  |  |  |  |  |  |  |  |  | 
COc1ccc2nc(NC(=O)C(=O)CC(=O)c3ccc([N+](=O)[O-])cc3)sc2c1 | > 100 µM | > 100 µM | > 100 µM | > 100 µM | > 100 µM | > 100 µM | > 100 µM |  |  |  |  |  |  |  |  |  |  |  |  | 
COC(=O)C1=C(C(=O)OC)C2(c3ccccc3)OC1(c1ccccc1)c1cc3ccccc3cc12 | 2.68 µM | 4.55 µM | 3.07 µM | 4.48 µM | 3.33 µM | 3.77 µM | 3.5 µM |  |  |  |  |  |  |  |  |  |  |  |  | 
